# Reference: the supplement of paper PMC12420376
# Tests used:
# OVCAR8 = assay: drug sensitivity score (DSS2) on cancer cell count; higher = more sensitive; extreme values may be limits of the assay; conditions: 72 h
# In short: (§1)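 Screen quality was checked by Z', and a drug sensitivity score was derived in Breeze from logistic fits of the cancer cell counts. These counts were obtained by imaging at 10× (4 fields) after fixing and immunostaining for CK8/18 with Hoechst. Before that, ovarian cancer cells, alone or in 1:1 direct co-culture with lung or skin fibroblasts, had been treated for 72 h on 384-well plates acoustically pre-spotted with 528 approved and investigational compounds at 5 concentrations.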
# KURAMOCHI = assay: as above; conditions: 72 h
# In short: as §1
# [1] = co-cultured fibroblast: BJHTERT
# [2] = co-cultured fibroblast: none (monoculture)
Structure (SMILES),drug sensitivity score (OVCAR8; [1]),drug sensitivity score (OVCAR8; co-cultured fibroblast: WI38),drug sensitivity score (OVCAR8; [2]),drug sensitivity score (KURAMOCHI; [1]),drug sensitivity score (KURAMOCHI; co-cultured fibroblast: WI38),drug sensitivity score (KURAMOCHI; [2])
O=C1c2c(O)ccc(O)c2C(=O)c2c(NCCNCCO)ccc(NCCNCCO)c21 [Mitoxantrone],20.4 DSS,17 DSS,18.1 DSS,17.1 DSS,13.3 DSS,23.6 DSS
O=C(Nc1c[nH]nc1-c1nc2ccc(CN3CCOCC3)cc2[nH]1)NC1CC1 [AT9283],10.7 DSS,14.2 DSS,9 DSS,15.8 DSS,16 DSS,19.6 DSS
CN(C)CCCOc1ccc(-c2ccc3ncc4c(c3c2)n(C2CCOCC2)c(=O)n4C)cn1 [AZD0156],6.4 DSS,6.8 DSS,0.5 DSS,2.5 DSS,1.4 DSS,0.7 DSS
CC1(C)CCC(c2ccc(Cl)cc2)=C(CN2CCN(c3ccc(C(=O)NS(=O)(=O)c4ccc(N[C@H](CCN5CCOCC5)CSc5ccccc5)c(S(=O)(=O)C(F)(F)F)c4)cc3)CC2)C1 [Navitoclax],7.5 DSS,0 DSS,0.3 DSS,2.4 DSS,3.1 DSS,1.1 DSS
Cc1sc2c(c1C)C(c1ccc(Cl)cc1)=N[C@@H](CC(=O)Nc1ccc(O)cc1)c1nnc(C)n1-2 [Birabresib],19.5 DSS,8.7 DSS,15.6 DSS,10.7 DSS,13 DSS,8.2 DSS
O=C(CCCCCCC(=O)Nc1ccc([C@H]2O[C@@H](CSc3nc(-c4ccccc4)c(-c4ccccc4)o3)C[C@@H](c3ccc(CO)cc3)O2)cc1)NO [Tubacin],5 DSS,1.5 DSS,6.2 DSS,1.1 DSS,6.7 DSS,7 DSS
O=C(NC[C@H](O)CN1CCc2ccccc2C1)c1cc(NC2COC2)ncn1,0 DSS,0 DSS,0 DSS,0.1 DSS,0 DSS,0 DSS
CCOCc1nc2c(N)nc3ccccc3c2n1CC(C)(C)O [Resiquimod],0.3 DSS,0 DSS,0 DSS,0 DSS,0 DSS,6.7 DSS
O=C(Nc1ccc(OC(F)(F)Cl)cc1)c1cnc(N2CC[C@@H](O)C2)c(-c2cc[nH]n2)c1 [Asciminib],0 DSS,10.5 DSS,0 DSS,0 DSS,0 DSS,0 DSS
O=C(CCCCCCNC(=O)c1cnc(N(c2ccccc2)c2ccccc2)nc1)NO [Rocilinostat],10.4 DSS,5.2 DSS,18.6 DSS,6.7 DSS,6.9 DSS,7.1 DSS
CNC(=O)c1ccccc1Nc1nc(Nc2ccc3c(c2OC)CCC[C@H](N2CCN(CCO)CC2)C3)ncc1Cl,7.3 DSS,2.2 DSS,11.1 DSS,6.7 DSS,2.2 DSS,9.5 DSS
COc1ccc(-c2ccc3c(N4CCOC[C@@H]4C)nc(N4CCOC[C@@H]4C)nc3n2)cc1CO [AZD8055],17.9 DSS,11.4 DSS,21 DSS,21.3 DSS,18.1 DSS,19 DSS
CCc1c(C(=O)C(N)=O)c2c(OCC(=O)O)cccc2n1Cc1ccccc1 [Varespladib],0 DSS,0 DSS,3.4 DSS,0 DSS,0 DSS,0 DSS
C=C1C[C@@H]2[C@H](CC[C@]3(C)C(=O)CC[C@@H]23)[C@@]2(C)C=CC(=O)C=C12 [Exemestane],1.3 DSS,0 DSS,0 DSS,0 DSS,0 DSS,0 DSS
CCN(CC)Cc1ccc2cc(COC(=O)Nc3ccc(C(=O)NO)cc3)ccc2c1 [Givinostat],14.9 DSS,8.5 DSS,8.8 DSS,8.6 DSS,7.4 DSS,6.1 DSS
CO[C@@H](C(=O)N1Cc2[nH]nc(NC(=O)c3ccc(N4CCN(C)CC4)cc3)c2C1)c1ccccc1 [Danusertib],15 DSS,19.2 DSS,21 DSS,22.9 DSS,20.9 DSS,28.6 DSS
CCCS(=O)(=O)Nc1ccc(F)c(C(=O)c2c[nH]c3ncc(-c4ccc(Cl)cc4)cc23)c1F [Vemurafenib],0 DSS,1.1 DSS,1.3 DSS,0 DSS,0 DSS,0.8 DSS
NC(=O)N1CCC(CC(=O)N2CCC([C@H]3c4ncc(Br)cc4CCc4cc(Cl)cc(Br)c43)CC2)CC1 [Lonafarnib],14.5 DSS,4.9 DSS,10.3 DSS,13 DSS,13.9 DSS,13.2 DSS
NCC(=O)Nc1ccc(-n2nc(C(F)(F)F)cc2-c2ccc3c(ccc4ccccc43)c2)cc1,0 DSS,0 DSS,9.7 DSS,2.6 DSS,4.1 DSS,8 DSS
Cc1cc(Nc2ncc(Cl)c(Nc3ccccc3S(=O)(=O)C(C)C)n2)c(OC(C)C)cc1C1CCNCC1 [Ceritinib],1.8 DSS,0 DSS,3.7 DSS,1.3 DSS,0 DSS,2.2 DSS
CNC(=O)c1cc(COc2nnc(Nc3ccc(Cl)cc3)c3ccoc23)ccn1 [Telatinib],1.1 DSS,0 DSS,0 DSS,0 DSS,0.4 DSS,16.6 DSS
C[C@@H](C(=O)O)c1ccc(-c2ccccc2)c(F)c1 [Tarenflurbil],0.7 DSS,0 DSS,0 DSS,0 DSS,0 DSS,0 DSS
CC(C)NC(=O)COc1cccc(-c2nc(Nc3ccc4[nH]ncc4c3)c3ccccc3n2)c1 [KD025],5 DSS,8.3 DSS,0.3 DSS,1.2 DSS,1.3 DSS,0 DSS
C[C@@H](Nc1cc(F)cc(F)c1)c1cc(C(=O)N(C)C)cc2c(=O)cc(N3CCOCC3)oc12 [AZD-8186],0 DSS,0 DSS,0.8 DSS,8.7 DSS,3.8 DSS,6.5 DSS
Cn1c(=O)n(-c2ccc(C(C)(C)C#N)cc2)c2c3cc(-c4cnc5ccccc5c4)ccc3ncc21 [Dactolisib],13.3 DSS,8.2 DSS,17.6 DSS,12.4 DSS,15.5 DSS,20.5 DSS
COc1cc2c(Nc3ccc(Cl)c(Cl)c3F)ncnc2cc1OC[C@@H]1C[C@@H]2CN(C)C[C@@H]2C1 [Tesevatinib],3.3 DSS,0.4 DSS,3.4 DSS,5 DSS,1.4 DSS,11.7 DSS
C[C@H]1CNCCCN1S(=O)(=O)c1cccc2cncc(F)c12 [Ripasudil],3 DSS,6.9 DSS,0.2 DSS,1.8 DSS,0 DSS,0.4 DSS

Structure (SMILES),drug sensitivity score (OVCAR8; [1]),drug sensitivity score (OVCAR8; co-cultured fibroblast: WI38),drug sensitivity score (OVCAR8; [2]),drug sensitivity score (KURAMOCHI; [1]),drug sensitivity score (KURAMOCHI; co-cultured fibroblast: WI38),drug sensitivity score (KURAMOCHI; [2])
COc1ccc(-c2nc(N3CCOCC3)c3sc(CN(C)c4ncc(C(=O)NO)cn4)cc3n2)cn1 [CUDC-907],43.2 DSS,41.7 DSS,30 DSS,34.1 DSS,28.6 DSS,29.7 DSS
COc1cc2c(N3CCN(C(=O)Nc4ccc(OC(C)C)cc4)CC3)ncnc2cc1OCCCN1CCCCC1 [Tandutinib],0 DSS,0 DSS,0 DSS,0 DSS,0 DSS,0 DSS
CCCN(CCC)C(=O)C1=Cc2ccc(-c3ccc(C(=O)N4CCCC4)cc3)cc2N=C(N)C1 [Motolimod],0 DSS,0 DSS,2.4 DSS,1.3 DSS,0 DSS,1 DSS
CC(C)(O)CNc1nc(Nc2ccnc(C(F)(F)F)c2)nc(-c2cccc(C(F)(F)F)n2)n1 [Enasidenib],0 DSS,0 DSS,0 DSS,0.3 DSS,0 DSS,0 DSS
Nc1nc2[nH]cc(CCc3ccc(C(=O)N[C@@H](CCC(=O)O)C(=O)O)cc3)c2c(=O)[nH]1 [Pemetrexed],16.4 DSS,19.3 DSS,25.5 DSS,10.1 DSS,16 DSS,13.6 DSS
Nc1cc(C(F)(F)F)c(-c2cc(N3CCOCC3)nc(N3CCOCC3)n2)cn1 [Buparlisib],6.9 DSS,3.4 DSS,9.3 DSS,9.1 DSS,8 DSS,7.9 DSS
CCC(C)n1ncn(-c2ccc(N3CCN(c4ccc(OCC5COC(Cn6cncn6)(c6ccc(Cl)cc6Cl)O5)cc4)CC3)cc2)c1=O (stereo not given) [Itraconazole],1 DSS,11.5 DSS,0.1 DSS,0 DSS,0 DSS,0 DSS
C[C@]12CC[C@@H]3c4ccc(O)cc4C[C@@H](CCCCCCCCC[S+]([O-])CCCC(F)(F)C(F)(F)F)[C@H]3[C@@H]1CC[C@@H]2O (stereo not given in full) [Fulvestrant],0 DSS,7.2 DSS,0 DSS,0 DSS,0 DSS,0 DSS
COc1ccc(-c2ccc3ncc4c(c3c2)n(-c2ccc(N3CCNCC3)c(C(F)(F)F)c2)c(=O)n4C)cn1 [NVP-BGT226],19.5 DSS,12 DSS,21.7 DSS,18.2 DSS,19.5 DSS,18.3 DSS
CNC(=O)c1ccc(N2C(=S)N(c3ccc(C#N)c(C(F)(F)F)c3)C(=O)C2(C)C)cc1F [Enzalutamide],0 DSS,0 DSS,2.2 DSS,0 DSS,0 DSS,1.3 DSS
Cn1nnc2c(C(N)=O)ncn2c1=O [Temozolomide],0 DSS,0 DSS,9.8 DSS,0 DSS,2.2 DSS,9.1 DSS
CNC(=O)c1cc(Oc2ccc(NC(=O)Nc3ccc(Cl)c(C(F)(F)F)c3)cc2)ccn1 [Sorafenib],0 DSS,0 DSS,0 DSS,0 DSS,0 DSS,0 DSS
CN(C)C(=O)c1ccc(S(=O)(=O)c2ccc(NC(=O)[C@@](C)(O)C(F)(F)F)c(Cl)c2)cc1 [AZD7545],3.4 DSS,0 DSS,0.7 DSS,0.4 DSS,0 DSS,0 DSS
CC(C)(C)c1cc(NC(=O)Nc2ccc(Oc3ccnc4[nH]c(=O)cnc34)cc2F)n(-c2ccccc2)n1,6.6 DSS,3.4 DSS,4.6 DSS,10 DSS,6.1 DSS,7 DSS
C#Cc1cccc(Nc2ncnc3cc4c(cc23)OCCOCCOCCO4)c1 [Icotinib],0.1 DSS,0 DSS,0 DSS,0 DSS,0.2 DSS,9.7 DSS
CC1(C)CC[C@]2(NC(=O)C(C)(F)F)CC[C@]3(C)[C@H](C(=O)C=C4[C@@]5(C)C=C(C#N)C(=O)C(C)(C)[C@@H]5CC[C@]43C)[C@@H]2C1 [Omaveloxolone],7 DSS,20 DSS,21.5 DSS,17.2 DSS,17.8 DSS,20.1 DSS
CNC(=O)c1cc(Oc2ccc(NC(=O)Nc3ccc(Cl)c(C(F)(F)F)c3)c(F)c2)ccn1 [Regorafenib],5.4 DSS,3.3 DSS,5.5 DSS,5.5 DSS,3.6 DSS,3.2 DSS
Nc1ncn([C@H]2C[C@H](O)[C@@H](CO)O2)c(=O)n1 [Decitabine],6.9 DSS,11.4 DSS,4.8 DSS,0 DSS,1.7 DSS,0.3 DSS
CCOC(=O)CCNc1cc(N2CCc3ccccc3CC2)nc(-c2ccccn2)n1 [GSK-J4],1.6 DSS,0.3 DSS,4.2 DSS,3.1 DSS,2.7 DSS,10.5 DSS
Cc1c(Cn2c(C)nc3c(C(=O)O)cc(N4CCOCC4)cc32)cccc1C(F)(F)F,3.7 DSS,0 DSS,0 DSS,5.5 DSS,0.3 DSS,6.9 DSS
O=c1[nH]c(=O)n([C@H]2C[C@H](O)[C@@H](CO)O2)cc1C(F)(F)F [Trifluridine],5.2 DSS,2.7 DSS,9 DSS,5.4 DSS,9.2 DSS,7.4 DSS
Cc1nc2cccc(N)c2c(=O)n1C1CCC(=O)NC1=O (stereo not given) [CC122],0 DSS,0 DSS,0 DSS,0 DSS,0 DSS,0 DSS
CC[C@H](CO)Nc1nc(NCc2ccccc2)c2ncn(C(C)C)c2n1 [Seliciclib],4.9 DSS,6.1 DSS,–,–,–,–
Cc1ccc(NC(=O)c2ccc(CN3CCN(C)CC3)cc2)cc1Nc1nccc(-c2cccnc2)n1 [Imatinib],2 DSS,7.3 DSS,1.4 DSS,–,–,–
Nc1ccn([C@@H]2O[C@H](CO)[C@@H](O)[C@@H]2O)c(=O)n1 [Cytarabine],20.1 DSS,18.3 DSS,25.2 DSS,–,–,–
CCN(CC)CCCC(C)Nc1ccnc2cc(Cl)ccc12 (stereo not given) [Chloroquine],12.8 DSS,6.4 DSS,6.4 DSS,–,–,–
